Reference: US4965280A, “Antifungal carbinols” (E. I. Du Pont de Nemours and Company, priority 1989, dated 1990)
Converted amounts (≈) assume the structure as drawn.

Legend:
[1] = tested on: WILD RADISH; assay: Test E; type: in vivo, Raphanus raphanistrum
[2] = tested on: GREEN FOXTAIL; assay: Test E; type: in vivo, Setaria viridis
[3] = tested on: Candida albicans ATCC 11651; assay: In vitro antifungal MIC, microtiter broth dilution; details: Candida albicans, ATCC11651, 24 h, read-out: MIC values, C. albicans, 30°, 24 hours
[4] = tested on: PARK WHEAT; assay: Test E; type: in vivo, Triticum aestivum cv. Park
[5] = tested on: Botrytis cinerea; assay: Example C bean grey mold; type: in vivo; details: Botrytis cinerea, 24 h, read-out: disease control rating, Ex. C
Procedure, shortened: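 Broad bean seedlings; foliar spray to run-off. Cmpd 100 or 20 ppm in water + 250 ppm TREM 014, acetone 6% v/v final.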

[6] = tested on: JET RAPE; assay: Test E; type: in vivo, Brassica napus cv. Jet Neuf
[7] = tested on: Pythium aphanadermatum; assay: Example J cucumber damping off; type: in vivo; details: Pythium, 336 h; 5 kg/ha; read-out: disease control rating, Ex. J
Procedure, shortened: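 Seeds and soil were inoculated with a mix of sand, cereal and Pythium aphanadermatum mycelium, the fungus responsible for cucumber damping off. They were kept in a growth chamber at 30° C. for 14 days, and disease was then rated to assess control.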

[8] = tested on: Venturia inaequalis; assay: Example A apple scab; type: in vivo; details: read-out: disease control rating, Ex. A
Procedure, shortened: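 Acetone solution (6% of final vol.) → suspension at 100 or 20 ppm in water + 250 ppm TREM 014 surfactant; sprayed to run-off on apple seedlings.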

[9] = tested on: Aspergillus fumigatus ATCC 28214; assay: In vitro antifungal MIC, microtiter broth dilution; details: Aspergillus fumigatus, ATCC28214, 24 h, read-out: MIC values, A. fumigatus, 30°, 24 hours
[10] = tested on: CTCHWD BEDSTRAW; assay: Test E; type: in vivo, Galium aparine
[11] = tested on: Fusarium oxysporum f. sp. cucumerinum; assay: Example L cucumber wilt; type: in vivo; details: 336 h, 5 kg/ha, read-out: disease control rating, Ex. L
Method: […] Seeds and soil were then inoculated with a mixture of sand, cereal and mycelium of the fungus Fusarium oxysporum f. sp. cucumerinum, causal agent of cucumber wilt, and incubated in a growth chamber at 30° C. for 14 days. Disease ratings were then made.

[12] = tested on: YELLOW NUTSEDGE; assay: Test C rice paddy; type: in vivo, Cyperus esculentus; details: 21 days
Description: (§1) Sixteen cm diameter Airlite plastic pots were partially filled with Tama slit loam soil and the soil saturated with water. Japonica and Indica rice seedlings a the 2.0 to 2.5 leaf stage were transplanted into 1/3 of the pots. Into another third of the pots were transplanted seedling or sprouted tubers of water plantain (Alisma trivale), Scripus (Scirpus paludosus), Cyperus (Cyperus esculentus), and arrowhead (Sagittaria spp.). The remaining pots were planted with barnyardgrass (Echinochloa crusgalli) seeds and sprouted tubes of water chestnut (Eleocharis spp.). These weeds all represent major rice weeds or genera of weeds important in rice. Three to four days after planting, the water level was raised to 3 cm (about 1200 ml/pot) and maintained a this level throughout the test. Chemical treatments were applied directly to the paddy water, within 24 hours of raising the water, after being formulated in a nonphytotoxic solvent. The pots were maintained in the greenhouse.

[13] = tested on: SCIRPUS; assay: Test C rice paddy; type: in vivo, Scirpus paludosus; details: Bolboschoenus maritimus, 504 h, 21 days, read-out: plant response; for pest or weed control at 64 g/ha: 0064 G/HA; for pest or weed control at 125 g/ha: 0125 G/HA; for pest or weed control at 250 g/ha: 0250 G/HA; for pest or weed control at 500 g/ha: 0500 G/HA
Description: as §1

[14] = tested on: WATERCHESTNUT; assay: Test C rice paddy; type: in vivo, Eleocharis spp.; details: Eleocharis, 504 h, 21 days, read-out: plant response; for pest or weed control at 64 g/ha: 0064 G/HA; for pest or weed control at 125 g/ha: 0125 G/HA; for pest or weed control at 250 g/ha: 0250 G/HA; for pest or weed control at 500 g/ha: 0500 G/HA
Description: as §1

[15] = tested on: WATER PLAINTAIN; assay: Test C rice paddy; type: in vivo, Alisma trivale; details: 504 h, 21 days, read-out: plant response; for pest or weed control at 64 g/ha: 0064 G/HA; for pest or weed control at 125 g/ha: 0125 G/HA; for pest or weed control at 250 g/ha: 0250 G/HA; for pest or weed control at 500 g/ha: 0500 G/HA
Description: as §1

[16] = tested on: RICE INDICA EFF; assay: Test C rice paddy; type: in vivo; details: Oryza sativa, 504 h, 21 days, read-out: plant response; for pest or weed control at 64 g/ha: 0064 G/HA; for pest or weed control at 125 g/ha: 0125 G/HA; for pest or weed control at 250 g/ha: 0250 G/HA; for pest or weed control at 500 g/ha: 0500 G/HA
Description: as §1

## C=C(c1ccc(F)cc1)C(O)(Cn1cncn1)c1ccc(F)cc1F (stereo not drawn) [Example 4, 2-(2,4-Difluorophenyl)-3-(4-fluorophenyl)-1-(1H-1,2,4-triazol-1-yl)-3-buten-2-ol]
[1]; POSTEMERGENCE 0064 GM/HA
  plant response: 20%
[1]; POSTEMERGENCE 0125 GM/HA
  plant response: 60%
[1]; POSTEMERGENCE 0250 GM/HA
  plant response: 80%
[1]; POSTEMERGENCE 0500 GM/HA
  plant response: 90%
[1]; PREEMERGENCE 0500 GM/HA
  plant response: 50%
[2]; POSTEMERGENCE 0064 GM/HA
  plant response: 0%
[2]; POSTEMERGENCE 0125 GM/HA
  plant response: 20%
[2]; POSTEMERGENCE 0250 GM/HA
  plant response: 20%
[2]; POSTEMERGENCE 0500 GM/HA
  plant response: 80%
[2]; PREEMERGENCE 0500 GM/HA
  plant response: 100%
[3]
  MIC: 0.03 µg/mL (≈ 0.0869 µM)
[4]; POSTEMERGENCE 0064 GM/HA
  plant response: 0%
[4]; POSTEMERGENCE 0125 GM/HA
  plant response: 10%
[4]; POSTEMERGENCE 0250 GM/HA
  plant response: 30%
[4]; POSTEMERGENCE 0500 GM/HA
  plant response: 50%
[4]; PREEMERGENCE 0500 GM/HA
  plant response: 80%
[5]
  pest or weed control at 100 ppm: 88%
[6]; POSTEMERGENCE 0064 GM/HA
  plant response: 0%
[6]; POSTEMERGENCE 0125 GM/HA
  plant response: 20%
[6]; POSTEMERGENCE 0250 GM/HA
  plant response: 20%
[6]; POSTEMERGENCE 0500 GM/HA
  plant response: 30%
[6]; PREEMERGENCE 0500 GM/HA
  plant response: 40%
[7]
  pest or weed control at 5000 g/ha: 0%
[8]
  pest or weed control at 100 ppm: 100%
[9]
  MIC: 0.8 µg/mL (≈ 2.32 µM)
[10]; POSTEMERGENCE 0064 GM/HA
  plant response: 20%
[10]; POSTEMERGENCE 0125 GM/HA
  plant response: 20%
[10]; POSTEMERGENCE 0250 GM/HA
  plant response: 80%
[10]; POSTEMERGENCE 0500 GM/HA
  plant response: 100%
[10]; PREEMERGENCE 0500 GM/HA
  plant response: 100%

## C=C(c1ccccc1)C(O)(Cn1cncn1)c1ccc(Cl)cc1Cl (stereo not drawn) [Example 50, 2-(2,4-Dichlorophenyl)-3-phenyl-1-(1H-1,2,4-triazol-1-yl)-3-buten-2-ol]
[3]
  MIC: 0.1 µg/mL (≈ 0.278 µM)
[11]
  pest or weed control at 5000 g/ha: 0%
[5]
  pest or weed control at 100 ppm: 98%
[12]; 0064 G/HA
  plant response: 0
[12]; 0125 G/HA
  plant response: 0
[12]; 0250 G/HA
  plant response: 0
[12]; 0500 G/HA
  plant response: 30
[12]; 1000 G/HA
  plant response: 50
[7]
  pest or weed control at 5000 g/ha: 0%
[13]
  pest or weed control at 64 g/ha: 0%
  pest or weed control at 125 g/ha: 0%
  pest or weed control at 250 g/ha: 0%
  pest or weed control at 500 g/ha: 0%
  pest or weed control at 1000 g/ha: 0%
[14]
  pest or weed control at 64 g/ha: 0%
  pest or weed control at 125 g/ha: 0%
  pest or weed control at 250 g/ha: 0%
  pest or weed control at 500 g/ha: 0%
  pest or weed control at 1000 g/ha: 0%
[15]
  pest or weed control at 64 g/ha: 0%
  pest or weed control at 125 g/ha: 0%
  pest or weed control at 250 g/ha: 0%
  pest or weed control at 500 g/ha: 0%
  pest or weed control at 1000 g/ha: 0%
[8]
  pest or weed control at 100 ppm: 100%
[9]
  MIC: 0.8 µg/mL (≈ 2.22 µM)
[16]
  pest or weed control at 64 g/ha: 0%
  pest or weed control at 125 g/ha: 40%
  pest or weed control at 250 g/ha: 30%
  pest or weed control at 500 g/ha: 70%
  pest or weed control at 1000 g/ha: 80%

## C=C(c1ccccc1Cl)C(O)(Cn1cncn1)c1ccc(Cl)cc1Cl (stereo not drawn) [Example 33, 2-(2,4-Dichlorophenyl)-3-(2-chlorophenyl)-1-(1H-1,2,4-triazol-1-yl)-3-buten-2-ol]
[3]
  MIC: 0.03 µg/mL (≈ 0.076 µM)
[11]
  pest or weed control at 5000 g/ha: 0%
[5]; 20 PPM
  pest or weed control at 20 ppm: 37%
[5]
  pest or weed control at 100 ppm: 56%
[12]; 0064 G/HA
  plant response: 0
[12]; 0125 G/HA
  plant response: 0
[12]; 0250 G/HA
  plant response: 0
[12]; 0500 G/HA
  plant response: 0
[12]; 1000 G/HA
  plant response: 40
[7]
  pest or weed control at 5000 g/ha: 0%
[13]
  pest or weed control at 64 g/ha: 0%
  pest or weed control at 125 g/ha: 0%
  pest or weed control at 250 g/ha: 0%
  pest or weed control at 500 g/ha: 0%
  pest or weed control at 1000 g/ha: 0%
[14]
  pest or weed control at 64 g/ha: 0%
  pest or weed control at 125 g/ha: 0%
  pest or weed control at 250 g/ha: 0%
  pest or weed control at 500 g/ha: 0%
  pest or weed control at 1000 g/ha: 0%
[15]
  pest or weed control at 64 g/ha: 0%
  pest or weed control at 125 g/ha: 0%
  pest or weed control at 250 g/ha: 0%
  pest or weed control at 500 g/ha: 0%
  pest or weed control at 1000 g/ha: 0%
[8]; 20 PPM
  pest or weed control at 20 ppm: 47%
[9]
  MIC: 0.03 µg/mL (≈ 0.076 µM)
[16]
  pest or weed control at 64 g/ha: 0%
  pest or weed control at 125 g/ha: 0%
  pest or weed control at 250 g/ha: 0%
  pest or weed control at 500 g/ha: 30%
  pest or weed control at 1000 g/ha: 70%
